Like-named read-outs stand apart in the source and are kept apart here.
Experiments:
Assay type in all cases: binding
HLA-A*02:01 = HLA-A*02:01 (Homo sapiens, UniProt P04439, D140Y/D185E/D98H/E176V/E277Q/G131W/G231S/I119V/I121R/I166T/I218V/L300P/L318F/N151K/N90K/P208A/P217A/Q86G/Q94H/R138H/R169H/T345S)
HLA-DRB1*15:01 = HLA-DRB1*15:01 (Homo sapiens, UniProt P01903+P01911); conditions: reference peptide, short 15 amino acid form
HLA-DRB1*01:01 = HLA-DRB1*01:01 (Homo sapiens, UniProt P01903+P01911, A100R/D57E/F55L/F60I/F76Y/I96L/L162R/M171V/P40L/Q125E/R42F/V115G/Y59C); conditions: reference peptide, short 15 amino acid form

For ISDEFSSNV, the “Practical Exchange rate” value (HLA-A*02:01; […], exiting peptide removed) was 93.5%.

SVLLFLAFV was tested, and the “Practical Exchange rate” value (HLA-A*02:01) was 57.5%.

With YLYALVYFL the “Practical Exchange rate” value (HLA-A*02:01; […], exiting peptide removed) was 85%.

With PVSKMRMATPLLMQA [CLIP] the “interaction with recombinant HLA-DRB1*15:01” value (HLA-DRB1*15:01) was “interacts strongly” and the “interaction with recombinant HLA-DRB1*01:01” value (HLA-DRB1*01:01) was “interacts strongly”.
